Where “and” joins values, the source holds several entries; their conditions need not be identical. Equal values may be shown once.
How the values were obtained:
[1] = system: PC-3 PIP/flu tumor-bearing mice; experiment: Biodistribution study in PC-3 PIP/flu tumor-bearing mice; type: in vivo, athymic nude Balb/c mice; conditions: for Kidneys / Tumor-to-kidney / Blood / Bone / Heart / Intestines / Liver / Lung / Muscle / Salivary glands / Spleen / Stomach / Tumor-to-blood / Tumor-to-liver: PC-3 PIP/flu tumor-bearing mice; for PC-3 flu Tumor: PSMA-negative tumor xenograft; for PC-3 flu Tumor / PC-3 PIP Tumor: mice; for PC-3 PIP Tumor: PSMA-positive tumor xenograft
Experimental: (§1) In vivo experiments were approved by the local veterinarian department and conducted in accordance with the Swiss law of animal protection. Mice were obtained from Charles River Laboratories, Sulzfeld, Germany, at the age of 5-6 weeks. Female, athymic nude Balb/c mice were subcutaneously inoculated with PSMA-positive PC-3 PIP cells (6×10^6 cells in 100 μL Hank's balanced salt solution (HBSS) with Ca^2+/Mg^2+) on the right shoulder and with PSMA-negative PC-3 flu cells (5×10^6 cells in 100 μL HBSS Ca^2+/Mg^2+) on the left shoulder. Two weeks later, the tumors reached a size of about 80-300 mm^3 suitable for the performance of the biodistribution studies.
Biodistribution studies were performed 12-15 days after PC-3 PIP/flu tumor cell inoculation. […] The radioligands were injected in a lateral tail vein in a volume of 100-200 μL. Mice were euthanized at different time points after injection (p.i.) of the radioligands. Selected tissues and organs were collected, weighed and measured using a γ-counter. The results were decay-corrected and listed as a percentage of the injected activity per gram of tissue mass (% IA/g) (Table 3 and 4).
Mice were obtained from Charles River Laboratories, Sulzfeld, Germany, at the age of 5-6 weeks. Female, athymic nude BALB/c mice were subcutaneously inoculated with PSMA-positive PC-3 PIP cells (6×10^6 cells in 100 μL Hank's balanced salt solution (HBSS)) on the right shoulder and with PSMA-negative PC-3 flu cells (5×10^6 cells in 100 μL HBSS) on the left shoulder. Two weeks later, the tumors reached a size of about 80-300 mm^3 suitable for the performance of the biodistribution and imaging studies.
Biodistribution studies were performed 12-15 days after PC-3 PIP/flu tumor cell inoculation. ^177Lu-Ibu-sPSMA was diluted in 0.9% NaCl containing 0.05% bovine serum albumin (BSA) to prevent adhesion to the vial and syringe material. The radioligand was injected in a lateral tail vein in a volume of 100 μL. Mice were euthanized at different time points after injection (p.i.) of the radioligand. Selected tissues and organs were collected, weighed and measured using a γ-counter. The results were decay-corrected and listed as a percentage of the injected activity per gram of tissue mass (% IA/g) (Table 6, FIG. 18).

[2] = Whole-body activity measurements, tumor-bearing mice; type: in vivo, athymic nude Balb/c mice; conditions: 4 h p.i., 30 MBq, 1 nmol i.v., activity right after injection = 100%
Experimental: as §1, with “imaging” for “biodistribution”
The single radioligands (specific activity: 30 MBq/nmol) were diluted in 0.9% NaCl containing 0.05% bovine serum albumin (BSA) and i.v. injected into PC-3 PIP/flu tumor bearing mice (30 MBq, 1 nmol, 100 μL) for SPECT/CT imaging purposes. The mice were measured in a dose calibrator at 4 h, 24 h, 48 h and 72 h p.i., respectively.

Compound	Blood ([1]; 4 h p.i.) [% IA/g]	Bone ([1]; 4 h p.i.) [% IA/g]	Heart ([1]; 4 h p.i.) [% IA/g]	Intestines ([1]; 4 h p.i.) [% IA/g]	Kidneys ([1]; 4 h p.i.) [% IA/g]	Liver ([1]; 4 h p.i.) [% IA/g]	Lung ([1]; 4 h p.i.) [% IA/g]	Muscle ([1]; 4 h p.i.) [% IA/g]	Salivary glands ([1]; 4 h p.i.) [% IA/g]	Spleen ([1]; 4 h p.i.) [% IA/g]	Stomach ([1]; 4 h p.i.) [% IA/g]	Tumor-to-blood ([1]; 4 h p.i.)	Tumor-to-kidney ([1]; 4 h p.i.)	Tumor-to-liver ([1]; 4 h p.i.)	PC-3 flu Tumor ([1]; 4 h p.i.) [% IA/g]	PC-3 PIP Tumor ([1]; 4 h p.i.) [% IA/g]	Bone ([1]; 24 h p.i.) [% IA/g]	Heart ([1]; 24 h p.i.) [% IA/g]	Intestines ([1]; 24 h p.i.) [% IA/g]	Kidneys ([1]; 24 h p.i.) [% IA/g]	other results
CC(C)Cc1ccc(C(C)C(=O)NC(CC(=O)O)C(=O)NCCCCC(NC(=O)CN2CCN(CC(=O)O)CCN(CC(=O)O)CCN(CC(=O)O)CC2)C(=O)NCC2CCC(C(=O)NC(Cc3ccc4ccccc4c3)C(=O)NCCCCC(NC(=O)NC(CCC(=O)O)C(=O)O)C(=O)O)CC2)cc1 (stereo not shown) [^177Lu-Ibu-Dα-PSMA, metal not drawn]	2.33 ± 0.71	0.37 ± 0.10	0.89 ± 0.27	0.49 ± 0.08	27.2 ± 3.31	0.84 ± 0.22	1.54 ± 0.35	0.35 ± 0.08	0.74 ± 0.20	0.90 ± 0.04	0.25 ± 0.08	22.5 ± 5.28	1.82 ± 0.03	60.8 ± 11.1	1.00 ± 0.21	49.4 ± 5.33	0.11 ± 0.02	0.18 ± 0.03	0.11 ± 0.02	18.2 ± 3.06	Kidneys ([1]; 1 h p.i.): 73±2 % IA/g; Tumor-to-kidney ([1]; 1 h p.i.): 0.59±0.08; Blood ([1]; 24 h p.i.): 0.33 ± 0.06 % IA/g; Liver ([1]; 24 h p.i.): 0.37 ± 0.04 % IA/g; Lung ([1]; 24 h p.i.): 0.39 ± 0.09 % IA/g; Muscle ([1]; 24 h p.i.): 0.07 ± 0.02 % IA/g; Salivary glands ([1]; 24 h p.i.): 0.21 ± 0.04 % IA/g; Spleen ([1]; 24 h p.i.): 0.46 ± 0.10 % IA/g; Stomach ([1]; 24 h p.i.): 0.12 ± 0.03 % IA/g; Tumor-to-blood ([1]; 24 h p.i.): 198 ± 32.6; Tumor-to-kidney ([1]; 24 h p.i.): 3.56 ± 0.34; Tumor-to-liver ([1]; 24 h p.i.): 196 and 196 ± 44.4; PC-3 flu Tumor ([1]; 24 h p.i.): 0.38 ± 0.05 % IA/g; PC-3 PIP Tumor ([1]; 24 h p.i.): 84.2±14.9 % IA/g; whole-body retention of radioactivity [2]: 29%
CC(C)Cc1ccc(C(C)C(=O)NC(CC(=O)NCCCCC(NC(=O)CN2CCN(CC(=O)O)CCN(CC(=O)O)CCN(CC(=O)O)CC2)C(=O)NCC2CCC(C(=O)NC(Cc3ccc4ccccc4c3)C(=O)NCCCCC(NC(=O)NC(CCC(=O)O)C(=O)O)C(=O)O)CC2)C(=O)O)cc1 (stereo not shown) [^177Lu-Ibu-Dβ-PSMA, metal not drawn]	13.2±1.15	1.87 ± 0.16	4.19 ± 0.23	1.81 ± 0.23	32.2 ± 2.46	3.87 ± 0.16	8.55 ± 3.30	1.79 ± 0.48	3.33 ± 0.15	2.60 ± 0.23	1.51 ± 0.18	5.03±0.73	2.06 ± 0.23	17.0 ± 1.73	3.86 ± 0.18	65.7 ± 7.31	0.26 ± 0.03	0.57 ± 0.02	0.40 ± 0.07	21.3 ± 1.53	Blood ([1]; 24 h p.i.): 1.28 ± 0.05 % IA/g; Liver ([1]; 24 h p.i.): 0.69 ± 0.07 % IA/g; Lung ([1]; 24 h p.i.): 1.17 ± 0.06 % IA/g; Muscle ([1]; 24 h p.i.): 0.22 ± 0.04 % IA/g; Salivary glands ([1]; 24 h p.i.): 0.61 ± 0.02 % IA/g; Spleen ([1]; 24 h p.i.): 1.03 ± 0.08 % IA/g; Stomach ([1]; 24 h p.i.): 0.48 ± 0.13 % IA/g; Tumor-to-blood ([1]; 24 h p.i.): 83.6 ± 9.06; Tumor-to-kidney ([1]; 24 h p.i.): 4.90 ± 0.29; Tumor-to-liver ([1]; 24 h p.i.): 151 ± 3.37; PC-3 flu Tumor ([1]; 24 h p.i.): 0.79 ± 0.12 % IA/g; PC-3 PIP Tumor ([1]; 24 h p.i.): 106±9.70 % IA/g; whole-body retention of radioactivity [2]: 49%
CC(C)Cc1ccc(C(C)C(=O)NC(CC(N)=O)C(=O)NCCCCC(NC(=O)CN2CCN(CC(=O)O)CCN(CC(=O)O)CCN(CC(=O)O)CC2)C(=O)NCC2CCC(C(=O)NC(Cc3ccc4ccccc4c3)C(=O)NCCCCC(NC(=O)NC(CCC(=O)O)C(=O)O)C(=O)O)CC2)cc1 (stereo not shown) [^177Lu-Ibu-N-PSMA, metal not drawn]	3.58 ± 1.39	0.56 ± 0.22	1.23 ± 0.61	0.50 ± 0.18	27.1 ± 8.37	1.27 ± 0.55	2.20 ± 0.95	0.47 ± 0.19	0.94 ± 0.38	1.40 ± 0.75	0.51 ± 0.23	20.1 ± 6.22	2.48 ± 0.11	18.2 ± 2.70	1.15 ± 0.52	65.4 ± 15.6	0.08 ± 0.02	0.12 ± 0.03	0.09 ± 0.02	8.02±1.13	Liver ([1]; 24 h p.i.): 0.32 ± 0.05 % IA/g; Lung ([1]; 24 h p.i.): 0.24 ± 0.06 % IA/g; Muscle ([1]; 24 h p.i.): 0.06 ± 0.02 % IA/g; Salivary glands ([1]; 24 h p.i.): 0.57 ± 0.35 % IA/g; Spleen ([1]; 24 h p.i.): 0.24 ± 0.06 % IA/g; Stomach ([1]; 24 h p.i.): 0.17 ± 0.09 % IA/g; Tumor-to-blood ([1]; 24 h p.i.): 227 ± 41.7; Tumor-to-kidney ([1]; 24 h p.i.): 6.90 ± 2.43; Tumor-to-liver ([1]; 24 h p.i.): 182 and 182 ± 52.6; PC-3 flu Tumor ([1]; 24 h p.i.): 0.23 ± 0.01 % IA/g; PC-3 PIP Tumor ([1]; 24 h p.i.): 58.0 ± 21.0 % IA/g; whole-body retention of radioactivity [2]: 12%

From patent US20220024882A1, “NOVEL TUMOR ANTIGEN BINDING AGENTS AND USES THEREOF” (ITM Isotopen Technologien München AG, priority 2018, published 2022)
